Results reported in patent publication US11065249B2, “Diacylglycerol acyl transferase 2 inhibitor” (Pfizer Inc., priority 2019, dated 2021).
Counter-ions that a name gives are not always drawn.

Legend:
[1] = Intrinsic clearance in human liver microsomes; format: in vitro ADME; settings: 1 μM test compound, mean +/− STD Dev; for microsomal CLint at 1 μM: human, pooled human liver microsomes, pH 7.4, human liver microsome assay; for CLint (+/−STD Dev): human liver microsome assay
Method: The incubations were conducted at 37° C. […] (Sorvall R C 3C Plus, Thermo Scientific, Waltham, Mass.).

human DGAT2 (hDGAT2) = human DGAT2 (hDGAT2) (Homo sapiens (Human), UniProt Q96PD7); test: In vitro DGAT2 assay, determination of IC50 values for DGAT2 inhibitors; format: biochemical; settings: inhibition of DGAT2, hDGAT2 membrane fractions; geometric mean
human DGAT2 (hDGAT2), sequence (Q96PD7 whole entry): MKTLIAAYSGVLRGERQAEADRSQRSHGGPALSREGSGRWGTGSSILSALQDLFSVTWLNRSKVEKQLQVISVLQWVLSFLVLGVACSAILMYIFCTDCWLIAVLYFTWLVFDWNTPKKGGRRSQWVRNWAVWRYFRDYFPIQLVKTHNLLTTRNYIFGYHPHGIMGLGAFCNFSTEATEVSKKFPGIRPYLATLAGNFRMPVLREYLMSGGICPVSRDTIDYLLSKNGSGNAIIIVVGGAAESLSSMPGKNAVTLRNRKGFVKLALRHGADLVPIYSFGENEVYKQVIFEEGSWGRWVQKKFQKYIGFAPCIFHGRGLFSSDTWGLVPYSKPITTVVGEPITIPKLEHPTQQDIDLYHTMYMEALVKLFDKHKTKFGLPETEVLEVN
Method: Recombinant baculovirus for the FLAG-tagged hDGAT2 was generated in SF9 insect cells using Bac-to-Bac baculovirus expression system (Invitrogen) according to the manufacturer's protocol. For the expression of hDGAT2, SF9 cells (20 L) grown in Sf900II media were infected with hDGAT2 baculovirus at a multiplicity of infection of 1 in a Wave Bioreactor System 20/50P wave bag (GE Healthcare). After 40 hours of infection, the cells were then harvested by centrifugation at 5,000×g. The cell pellets were washed by resuspending in phosphate buffered saline (PBS) and collected by centrifugation at 5,000×g. The cell paste was flash frozen in liquid N2 and stored at −80° C. until needed. All operations below were at 4° C. unless otherwise noted. The cells were resuspended in lysis buffer (50 mM Tris-HCl, pH 8.0, 250 mM sucrose) including 1 mM ethylenediaminetetraacetic acid (EDTA) and the complete protease inhibitor cocktail (Roche Diagnostics) at a ratio of 3 mL buffer per 1 g cell paste. The cells were lysed by dounce homogenizer. The cell debris was removed by centrifugation at 1,000×g for 20 min, and the supernatant was centrifuged at 100,000×g for 1 hour. The resulting pellet was rinsed three times by filling ultracentrifuge tubes to the top with ice cold PBS before decanting. The washed pellet was resuspended with gentle stirring for 1 hour in lysis buffer containing 8 mM 3-[(3-cholamidopropyl)dimethylammonio]-1-propanesulfonate (CHAPS) at a ratio of 1 mL buffer per 1 g of original cell paste and centrifuged again at 100,000×g for 1 hour. The resulting supernatant was aliquotted, flash frozen in liquid N2, and stored at −80° C. until use.
To 1 μL of compounds dissolved in 100% DMSO and spotted at the bottom of each well, 5 μL of 0.04% bovine serum albumin (BSA) (fatty acid free, Sigma Aldrich) was added and the mixture was incubated at room temperature for 15 minutes. hDGAT2 membrane fractions were diluted in 100 mM Hepes-NaOH, pH 7.4, 20 mM MgCl2 containing 200 nM methyl arachidonyl fluorophosphonate (Cayman Chemical, dried from ethyl acetate stock solution under argon gas and dissolved in DMSO as 5 mM stock). 10 μL of this enzyme working solution was added to the plates and incubation continued for 2 hours at room temperature. DGAT2 reactions were initiated by the addition of 4 μL of substrates containing 30 μM [1-^14C]decanoyl-CoA (custom-synthesized by Perkin Elmer, 50 mCi/mmol) and 125 μM 1,2-didecanoyl-sn-glycerol (Avanti Polar Lipids) dissolved in 12.5% acetone. The reaction mixtures were incubated at room temperature for 40 min and the reactions were stopped by addition of 5 μL of 1% H3PO4. After the addition of 45 μL MicroScint-E (Perkin-Elmer), plates were sealed with Top Seal-A covers (Perkin-Elmer) and phase partitioning of substrates and products was achieved using a HT-91100 microplate orbital shaker (Big Bear Automation, Santa Clara, Calif.). Plates were centrifuged at 2,000×g for 1 minute in an Allegra 6R Centrifuge (Beckman Coulter) and then were sealed again with fresh covers before reading in a 1450 Microbeta Wallac Trilux Scintillation Counter (Perkin Elmer). DGAT2 activity was measured by quantifying the generated product [^14C]tridecanoylglycerol in the upper organic phase.
Inhibitors were tested at eleven different concentrations to generate IC50 values for each compound.

[2] = Determination of pKa (capillary electrophoresis, Analiza); format: physicochemical; settings: most basic pKa, mean
[3] = High throughput determination of intrinsic clearance in human hepatocytes; format: in vitro ADME; settings: human, pooled cryopreserved human hepatocytes (suspension), high throughput human hepatocyte assay, 1 μM test compound; mean +/− Std Dev
Method: The incubation was carried out at 37° C. […] The samples were centrifuged (Eppendorf, Hauppauge, N.Y.) at 3000 rpm for 5 min at 4° C.

Structure (SMILES)	microsomal CLint at 1 μM [1] [µL/min/mg]	IC50 (human DGAT2 (hDGAT2)) [nM]	pKa [2]	hepatocyte CLint at 1 μM [3] [µL/min/1e6 cells]	further results
CCOc1cccnc1Oc1cncc(-c2ncc(C(=O)NC3CCCNC3C)cn2)c1 (mixture of isomers) [Example 23, 2-{5-[(3-ethoxypyridin-2-yl)oxy]pyridin-3-yl}-N-(2-methylpiperidin-3-yl)pyrimidine-5-carboxamide, trifluoroacetate salt, mixture of stereoisomers]	< 8	–	–	–	–
CCOc1cccnc1Oc1cncc(-c2ncc(C(=O)N[C@H]3CNCC[C@H]3C)cn2)c1 (racemic) [Example 20, rac-2-{5-[(3-ethoxypyridin-2-yl)oxy]pyridin-3-yl}-N-[(3R,4R)-4-methylpiperidin-3-yl]pyrimidine-5-carboxamide, trifluoroacetate salt]	8.9	2100	–	–	–
CCOc1cccnc1Oc1cncc(-c2ncc(C(=O)N[C@@H]3CNCC[C@H]3C)cn2)c1 (racemic) [Example 24, rac-2-{5-[(3-ethoxypyridin-2-yl)oxy]pyridin-3-yl}-N-[(3R,4S)-4-methylpiperidin-3-yl]pyrimidine-5-carboxamide, trifluoroacetate salt]	< 8	16000	–	–	–
CCOc1cccnc1Oc1cncc(-c2ncc(C(=O)N[C@H]3CCC(C(F)(F)F)NC3)cn2)c1 (single isomer, unassigned) [Example 8, rac-2-{5-[(3-ethoxypyridin-2-yl)oxy]pyridin-3-yl}-N-[(3R,6S)-6-(trifluoromethyl)piperidin-3-yl]pyrimidine-5-carboxamide or rac-2-{5-[(3-ethoxypyridin-2-yl)oxy]pyridin-3-yl}-N-[(3R,6R)-6-(trifluoromethyl)piperidin-3-yl]pyrimidine-5-carboxamide]	< 14	650	5.3	–	–
CCOc1cccnc1Oc1cncc(-c2ncc(C(=O)N[C@H]3CNCCC3(F)F)cn2)c1 (single isomer, unassigned) [Example 15, N-[(3S)-4,4-difluoropiperidin-3-yl]-2-{5-[(3-ethoxypyridin-2-yl)oxy]pyridin-3-yl}pyrimidine-5-carboxamide, trifluoroacetate salt or N-[(3R)-4,4-difluoropiperidin-3-yl]-2-{5-[(3-ethoxypyridin-2-yl)oxy]pyridin-3-yl}pyrimidine-5-carboxamide, trifluoroacetate salt]	21	–	–	5.3	–
CCOc1cccnc1Oc1cncc(-c2ncc(C(=O)N[C@H]3CNCCC3(F)F)cn2)c1 (single isomer, unassigned) [Example 16, N-[(3S)-4,4-difluoropiperidin-3-yl]-2-{5-[(3-ethoxypyridin-2-yl)oxy]pyridin-3-yl}pyrimidine-5-carboxamide, trifluoroacetate salt or N-[(3R)-4,4-difluoropiperidin-3-yl]-2-{5-[(3-ethoxypyridin-2-yl)oxy]pyridin-3-yl}pyrimidine-5-carboxamide, trifluoroacetate salt]	–	480	6.4	–	CLint (+/−STD Dev) ([1]; trifluoroacetate salt): 17 µL/min/mg
CCOc1cccnc1Oc1cncc(-c2ncc(C(=O)N[C@@H]3CNCC(F)(F)C3)cn2)c1 (single isomer, unassigned) [Example 18, N-[(3S)-5,5-difluoropiperidin-3-yl]-2-{5-[(3-ethoxypyridin-2-yl)oxy]pyridin-3-yl}pyrimidine-5-carboxamide or N-[(3R)-5,5-difluoropiperidin-3-yl]-2-{5-[(3-ethoxypyridin-2-yl)oxy]pyridin-3-yl}pyrimidine-5-carboxamide]	19	–	5.2	9.3	–
CCOc1cccnc1Oc1cncc(-c2ncc(C(=O)N[C@@H]3CNCC(F)(F)C3)cn2)c1 (single isomer, unassigned) [Example 19, N-[(3S)-5,5-difluoropiperidin-3-yl]-2-{5-[(3-ethoxypyridin-2-yl)oxy]pyridin-3-yl}pyrimidine-5-carboxamide or N-[(3R)-5,5-difluoropiperidin-3-yl]-2-{5-[(3-ethoxypyridin-2-yl)oxy]pyridin-3-yl}pyrimidine-5-carboxamide]	–	240	–	–	Basic pKa [2]: 5.2; CLint (+/−STD Dev) [1]: 34 ± 1.9 µL/min/mg
CCOc1cccnc1Oc1cncc(-c2ncc(C(=O)NC3CCC(C(F)(F)F)NC3)cn2)c1 (single isomer, unassigned; ent-2) [Example 11, 2-{5-[(3-ethoxypyridin-2-yl)oxy]pyridin-3-yl}-N-[6-(trifluoromethyl)piperidin-3-yl]pyrimidine-5-carboxamide, trifluoroacetate salt, ENT-2]	–	4.4	4.5	–	CLint (+/−STD Dev) [1]: >290 µL/min/mg
CCOc1cc(F)cnc1Oc1cncc(-c2ncc(C(=O)N[C@@H]3CNC[C@@H](F)C3)cn2)c1 [Example 2, 2-{5-[(3-Ethoxy-5-fluoropyridin-2-yl)oxy]pyridin-3-yl}-N-[(3S,5S)-5-fluoropiperidin-3-yl]pyrimidine-5-carboxamide]	< 7	–	7.3	3.6	–
CCOc1cc(F)cnc1Oc1cncc(-c2ncc(C(=O)N[C@@H]3CNCC[C@H]3F)cn2)c1 [Example 6, 2-{5-[(3-Ethoxy-5-fluoropyridin-2-yl)oxy]pyridin-3-yl}-N-[(3R,4R)-4-fluoropiperidin-3-yl]pyrimidine-5-carboxamide]	< 7.8	–	7.4	4.7	–
CCOc1cccnc1Oc1cncc(-c2ncc(C(=O)N[C@H]3CNCC[C@@H]3F)cn2)c1 [Example 12, 2-{5-[(3-ethoxypyridin-2-yl)oxy]pyridin-3-yl}-N-[(3S,4S)-4-fluoropiperidin-3-yl]pyrimidine-5-carboxamide, trifluoroacetate salt]	< 7	–	7.5	< 2.6	–
CCOc1cc(F)cnc1Oc1cncc(-c2ncc(C(=O)N[C@H]3CNCC[C@@H]3F)cn2)c1 [Example 13, 2-{5-[(3-ethoxy-5-fluoropyridin-2-yl)oxy]pyridin-3-yl}-N-[(3S,4S)-4-fluoropiperidin-3-yl]pyrimidine-5-carboxamide, formate salt]	35	–	6.7	12	–
CCOc1cccnc1Oc1cncc(-c2ncc(C(=O)N[C@H]3CCCNC3)cn2)c1 [Example 14, 2-{5-[(3-ethoxypyridin-2-yl)oxy]pyridin-3-yl}-N-[(3S)-piperidin-3-yl]pyrimidine-5-carboxamide, trifluoroacetate salt]	< 8	–	–	< 1.8	–
CCOc1cccnc1Oc1cncc(-c2ncc(C(=O)NC3CNCC(F)(F)C3)cn2)c1 (centres unmarked) [Example 17, N-(5,5-difluoropiperidin-3-yl)-2-{5-[(3-ethoxypyridin-2-yl)oxy]pyridin-3-yl}pyrimidine-5-carboxamide]	23	–	5.4	8.3	–
CCOc1cccnc1Oc1cncc(-c2ncc(C(=O)NC3CCCNC3)cn2)c1 (centres unmarked) [Example 21, 2-{5-[(3-ethoxypyridin-2-yl)oxy]pyridin-3-yl}-N-(piperidin-3-yl)pyrimidine-5-carboxamide, trifluoroacetate salt]	< 8	–	–	–	–
CCOc1cccnc1Oc1cncc(-c2ncc(C(=O)N[C@@H]3CCCNC3)cn2)c1 [Example 22, 2-{5-[(3-ethoxypyridin-2-yl)oxy]pyridin-3-yl}-N-[(3R)-piperidin-3-yl]pyrimidine-5-carboxamide, trifluoroacetate salt]	< 8	–	–	–	–
